# Measured values reported in patent publication US8017786B2, “Substituted β-phenyl-α-hydroxy-propanoic acid, synthesis method and use thereof” (Northwest University, priority 2006, dated 2011).
# Experiments:
# Bax = assay: Immunohistochemistry protein expression in I/R myocardial tissue: Bax; format: in vivo, rat; details: for Bax protein expression, OD value: 5 days, ischemia 30 min, reperfusion 2 h
# Experimental: (§1) 52 SD rats having a body weight of 220±20 g were randomly divided into model control group, salviannic acid injection group (in 1 mL/kg), and group of bornyl β-(3,4-dihydroxylphenyl)-α-hydroxylpropionate ester at a small, middle and large dose (ip 5, 15, 35 mg/kg). The rats of the normal group and the model control group were ip administered with equal-volume of physiologic saline. The rats of all groups were administered for consecutive 5 days. When the rats were administered for the last time, they were simultaneously anesthetized with 1.5% pentobarbital sodium (ip 45 mg/kg), then a catheter was inserted into the right carotid artery, and connected via a transducer to an eight-channeled physiological recorder. Tracheal cannula was performed, and the ventilation rate was maintained at 60 times/min. The chest was opened, a 6/0 suture was used to form a loop at a site 1˜2 mm from the root of the anterior descending coronary artery, and a plastic pipe was introduced through the loop, then the loop was tightened up. The change of electrocardiogram was observed. An increase or decrease of ST indicated the success of ligation. The color of the myocardial tissue below the ligation suture became darker. 30 minutes later, the plastic pipe was pulled out to allow coronary artery blood flowing again and cause hyperemia of local tissue during reperfusion. For the groups subjected to ischemia for 30 min and reperfusion for 30 min, the myocardial infarction areas were recorded before the test, after ischemia for 1 min and 30 min, and after reperfusion for 30 min; for the groups subjected to ischemia for 30 min and reperfusion for 2 h, cardiac tissue samples were taken and fixed using 10% formalin, embedded with paraffin, serially sliced into sections with a thickness of 4 μm, and separately subjected to immunohistochemistry tests; the rats of the sham operation group were subjected only to the introduction of suture but their coronary arteries were not ligated.
# (§2) Standard immunohistochemistry ABC and SP methods were employed for staining. Bax: anti-rabbit polyclonal antibody (Santa CruzBio. Inc.) at a dilution of 1:200; […]: anti-rabbit polyclonal antibody (TBD Tianjin Biotechnological Center). At a dilution of […]; caspase-3: anti-rabbit polyclonal antibody (Normarkers Fromont, Calif.), at a dilution of 1:200; MMP-2: anti-murine monoclonal antibody (NormarkersFromont, Calif.) at a dilution of 1:200; PPARγ: anti-caprine polyclonal antibody (Santa Cruz Bio. Inc.), at a dilution of 1:500. The specific procedures were performed in accordance with the instructions of the ABC and SP kits, DAB was used for color development, and neutral resin was used for mounting. PBS was used instead of the first antibody as a negative control. Cells with positive expression of the test polypeptides were of brown-yellow color, with MMP-2 protein being present in acytoplasm, Bcl-2 expressed in nuclear membrane and cytoplasm, Bax mainly in cytoplasm and partially in nucleus, and caspase-3 mainly in nucleus and partially in cytoplasm. CMIAS image analysis system was used for random selection of fields of slices and automatic selection of sites for analysis, and statistic analysis was performed by using mean optical density values or integral optical density values of the obtained myocardial tissue slices.
# MMP-2 = assay: Immunohistochemistry protein expression in I/R myocardial tissue: MMP-2; format: in vivo, rat; details: for MMP-2 protein expression, OD value: 5 days, ischemia 30 min, reperfusion 2 h
# Experimental: as §1, §2
smiles,measurement,setting,value
"CC1(C)C2CCC1(C)C(OC(=O)C(O)Cc1ccc(O)c(O)c1)C2 (stereo not drawn) [bornyl salvianate ester, bornyl β-(3,4-dihydroxylphenyl)-α-hydroxylpropionate ester]","Bax protein expression, OD value",Bax; 5 mg/kg ip,0.12 ± 0.03
same,"Bax protein expression, OD value",Bax; 15 mg/kg ip,0.09 ± 0.05
same,"Bax protein expression, OD value",Bax; 35 mg/kg ip,0.07 ± 0.03
same,expression of Bax protein (in words),Bax; myocardial cells I/R,reduce the expression of Bax and caspase-3 proteins
same,"MMP-2 protein expression, OD value",MMP-2; 5 mg/kg ip,0.14 ± 0.05
same,"MMP-2 protein expression, OD value",MMP-2; 15 mg/kg ip,0.14 ± 0.03
same,"MMP-2 protein expression, OD value",MMP-2; 35 mg/kg ip,0.11 ± 0.03
same,MMP-2 protein (in words),MMP-2; myocardial I/R,decrease of MMP-2 protein
